In ChEMBL document CHEMBL1201862, “PubChem BioAssay data set” (2004):
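Protocol summary: plate cells (96-well), add compound at 5 concentrations, incubate 48 h, interpolate endpoints linearly. Here, GI50 denotes the concentration required for 50% inhibition of growth.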 Activity calls are given as the source filed them. No stated cut-off is given here; in the data, active = GI50 up to about 1.1 µM and inactive = higher.

Legend:
Assay in all cases: NCI anticancer screen, dose series, 48 h
SK-OV-3 = system: SK-OV-3
HT-29 = system: HT-29
OVCAR-4 = system: OVCAR-4
MDA-MB-435 = system: MDA-MB-435
RXF 393 = system: RXF 393
HOP-92 = system: HOP-92
LOX IMVI = system: LOX IMVI
SF-295 = system: SF-295
MCF7 = system: MCF7
786-0 = system: 786-0
SK-MEL-2 = system: SK-MEL-2
Malme-3M = system: Malme-3M
HCT-116 = system: HCT-116
SF-539 = system: SF-539
NCI-H522 = system: NCI-H522
HCT-15 = system: HCT-15
CCRF-CEM = system: CCRF-CEM
HOP-62 = system: HOP-62
PC-3 = system: PC-3
SNB-19 = system: SNB-19

Question: What does the source list for `Sc1nn2c(Cc3ccccc3)nnc2s1`?
Answer: GI50 (SK-OV-3): > 100 µM (inactive); GI50 (HT-29): > 100 µM (inactive); GI50 (OVCAR-4): > 100 µM (inactive); GI50 (MDA-MB-435): > 100 µM (inactive); GI50 (RXF 393): > 100 µM (inactive); GI50 (HOP-92): > 100 µM (inactive); GI50 (LOX IMVI): > 100 µM (inactive); GI50 (SF-295): > 100 µM (inactive); GI50 (MCF7): > 100 µM (inactive); GI50 (786-0): > 100 µM (inactive); GI50 (SK-MEL-2): > 100 µM (inactive); GI50 (Malme-3M): > 100 µM (inactive); GI50 (HCT-116): > 100 µM (inactive); GI50 (SF-539): > 100 µM (inactive); GI50 (NCI-H522): > 100 µM (inactive); GI50 (HCT-15): > 100 µM; GI50 (CCRF-CEM): > 100 µM (inactive); GI50 (HOP-62): > 100 µM (inactive); GI50 (PC-3): > 100 µM (inactive); GI50 (SNB-19): > 100 µM (inactive)
